Experimental data reported in US20100267561A1, “HERBICIDAL PYRIDAZINONE DERIVATIVES” (priority 2007, published 2010).
Like-named read-outs stand apart in the source and are kept apart here.

What was measured:
Assay type in all cases: in vivo
[1] = tested on: barnyardgrass (Echinochloa crus-galli); assay: Test A pre-/postemergence plant response; details: for pest or weed control at 31 g/ha / pest or weed control at 125 g/ha: Echinochloa crus-galli, 240 h, read-out: Plant response rating, Barnyardgrass
In short: (§1)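 Seeds were planted in blended loam soil and sand, then treated preemergence by directed soil spray. At that time, emerged plants (one- to two-leaf, 2–10 cm) received postemergence applications of the same surfactant-containing formulation. Injury was assessed visually on a 0–100 scale after approximately 10 days.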

[2] = tested on: corn (Zea mays); assay: Test A pre-/postemergence plant response; details: for Corn plant response rating (crop injury, 0 = no effect, 100 = complete kill) at 31 g/ha / Corn plant response rating (crop injury, 0 = no effect, 100 = complete kill) at 125 g/ha: Zea mays, 240 h
In short: as §1

[3] = tested on: giant foxtail (Setaria faberi); assay: Test A pre-/postemergence plant response; details: for pest or weed control at 31 g/ha / pest or weed control at 125 g/ha: Setaria faberi, 240 h, read-out: Plant response rating, Foxtail, Giant
In short: as §1

[4] = tested on: large crabgrass (Digitaria sanguinalis); assay: Test A pre-/postemergence plant response; details: for pest or weed control at 31 g/ha / pest or weed control at 125 g/ha: Digitaria sanguinalis, 240 h, read-out: Plant response rating, Crabgrass, Large
In short: as §1

[5] = tested on: wheat (Triticum aestivum); assay: Test A pre-/postemergence plant response; details: for plant injury at 31 g/ha / plant injury at 125 g/ha: Triticum aestivum, 240 h, read-out: Plant response rating, Wheat
In short: as §1

[6] = tested on: canarygrass (Phalaris minor); assay: Test B postemergence plant response; details: for Canarygrass plant response rating: postemergence, 0-100 scale; for Plant response rating, Canarygrass: Postemergence
Procedure: (§2) At the same time, plants selected from these crop and weed species and also winter barley (Hordeum vulgare), canarygrass (Phalaris minor), chickweed (Stellaria media) and windgrass (Apera spica-venti) were treated with postemergence applications of some of the test chemicals formulated in the same manner. Plants ranged in height from 2 to 18 cm (1- to 4-leaf stage) for postemergence treatments.
(§3) Plant species in the flooded paddy test consisted of rice (Oryza sativa), umbrella sedge (Cyperus difformis), ducksalad (Heteranthera limosa) and barnyardgrass (Echinochloa crus-galli) grown to the 2-leaf stage for testing. At time of treatment, test pots were flooded to 3 cm above the soil surface, treated by application of test compounds directly to the paddy water, and then maintained at that water depth for the duration of the test. Treated plants and controls were maintained in a greenhouse for 13 to 15 days, after which time all species were compared to controls and visually evaluated. Plant response ratings, summarized in Table B, are based on a scale of 0 to 100 where 0 is no effect and 100 is complete control. A dash (-) response means no test result.

[7] = tested on: chickweed (Stellaria media); assay: Test B postemergence plant response; details: for Chickweed plant response rating: postemergence, 0-100 scale; for Plant response rating, Chickweed: Postemergence
Procedure: as §2, §3

[8] = tested on: windgrass (Apera spica-venti); assay: Test B postemergence plant response; details: for Windgrass plant response rating: postemergence, 0-100 scale; for Plant response rating, Windgrass: Postemergence
Procedure: as §2, §3

[9] = tested on: winter barley (Hordeum vulgare); assay: Test B postemergence plant response; details: for Barley plant response rating: postemergence; for Plant response rating, Barley: Postemergence, scale 0 to 100, 0 no effect, 100 complete control
Procedure: as §2, §3

[10] = post-emergence, Postemergence, 31 g ai/ha, 0 to 100 scale (0 no effect, 100 complete control)
[11] = post-emergence, Postemergence, 125 g ai/ha, 0 to 100 scale, 0 no effect, 100 complete control
[12] = pre-emergence, Preemergence, 31 g ai/ha, 0 to 100 scale, 0 is no effect, 100 is complete control
[13] = pre-emergence, Preemergence, 125 g ai/ha, 0 to 100 scale (0 no effect, 100 complete control)
[14] = 62 g ai/ha, scale 0 to 100, 0 no effect, 100 complete control
[15] = Postemergence, 31 g ai/ha, 0 to 100 scale, 0 no effect, 100 complete control
[16] = Postemergence, 125 g ai/ha, 0 to 100 scale, 0 no effect, 100 complete control
[17] = Preemergence, 31 g ai/ha, 0 to 100 scale, 0 is no effect, 100 is complete control
[18] = Preemergence, 125 g ai/ha, 0 to 100 scale (0 no effect, 100 complete control)

Cc1nn(C)c(=O)c(-c2nc(-c3ccc(Cl)cc3)sc2C)c1O [Compound 79, 4-[2-(4-chlorophenyl)-5-methyl-4-thiazolyl]-5-hydroxy-2,6-dimethyl-3(2H)-pyridazinone]
pest or weed control at 31 g/ha [1, 10]: 0% | pest or weed control at 125 g/ha [1, 11]: 50% | pest or weed control at 31 g/ha [1, 12]: 0% | pest or weed control at 125 g/ha [1, 13]: 100% | Corn plant response rating (crop injury, 0 = no effect, 100 = complete kill) at 31 g/ha [2, 10]: 0% | Corn plant response rating (crop injury, 0 = no effect, 100 = complete kill) at 125 g/ha [2, 11]: 30% | Corn plant response rating (crop injury, 0 = no effect, 100 = complete kill) at 31 g/ha [2, 12]: 0% | Corn plant response rating (crop injury, 0 = no effect, 100 = complete kill) at 125 g/ha [2, 13]: 20% | pest or weed control at 31 g/ha [3, 10]: 10% | pest or weed control at 125 g/ha [3, 11]: 70% | pest or weed control at 31 g/ha [3, 12]: 10% | pest or weed control at 125 g/ha [3, 13]: 100% | pest or weed control at 31 g/ha [4, 10]: 30% | pest or weed control at 125 g/ha [4, 11]: 50% | pest or weed control at 31 g/ha [4, 12]: 10% | pest or weed control at 125 g/ha [4, 13]: 100% | plant injury at 31 g/ha [5, 10]: 0% | plant injury at 125 g/ha [5, 11]: 50% | plant injury at 31 g/ha [5, 12]: 0% | plant injury at 125 g/ha [5, 13]: 60% | Canarygrass plant response rating ([6]; 8 g ai/ha): 10 | Plant response rating, Canarygrass ([6]; 16 g ai/ha, scale 0 to 100): 55 | Plant response rating, Canarygrass ([6]; 31 g ai/ha, scale 0 to 100): 85 | Plant response rating, Canarygrass [6, 14]: 95 | Chickweed plant response rating ([7]; 8 g ai/ha): 0 | Plant response rating, Chickweed ([7]; 16 g ai/ha, scale 0 to 100): 0 | Plant response rating, Chickweed ([7]; 31 g ai/ha, scale 0 to 100): 0 | Plant response rating, Chickweed [7, 14]: 0 | Windgrass plant response rating ([8]; 8 g ai/ha): 0 | Windgrass plant response rating ([8]; 16 g ai/ha): 50 | Plant response rating, Windgrass ([8]; 31 g ai/ha, scale 0 to 100): 50 | Plant response rating, Windgrass [8, 14]: 70 | Barley plant response rating ([9]; 8 g ai/ha, 0-100 scale): 0 | Plant response rating, Barley ([9]; 16 g ai/ha): 10 | Plant response rating, Barley ([9]; 31 g ai/ha): 30 | Plant response rating, Barley ([9]; 62 g ai/ha): 40

CCc1cc(-c2ccc(Br)cc2)nn1-c1c(O)c(C)nn(C)c1=O [Compound 74]
Plant response rating, Barnyardgrass [1, 15]: 100 | Plant response rating, Barnyardgrass [1, 16]: 100 | Plant response rating, Barnyardgrass [1, 17]: 100 | Plant response rating, Barnyardgrass [1, 18]: 100 | Plant response rating, Corn [2, 15]: 60 | Plant response rating, Corn [2, 16]: 100 | Plant response rating, Corn [2, 18]: 60 | Plant response rating, Foxtail, Giant [3, 15]: 70 | Plant response rating, Foxtail, Giant [3, 16]: 100 | Plant response rating, Foxtail, Giant [3, 17]: 90 | Plant response rating, Foxtail, Giant [3, 18]: 100 | Plant response rating, Crabgrass, Large [4, 15]: 60 | Plant response rating, Crabgrass, Large [4, 16]: 100 | Plant response rating, Crabgrass, Large [4, 17]: 50 | Plant response rating, Crabgrass, Large [4, 18]: 90 | Plant response rating, Wheat [5, 15]: 70 | Plant response rating, Wheat [5, 16]: 80 | Plant response rating, Wheat [5, 17]: 20 | Plant response rating, Wheat [5, 18]: 60 | Canarygrass plant response rating ([6]; 8 g ai/ha): 80 | Plant response rating, Canarygrass ([6]; 16 g ai/ha, scale 0 to 100): 90 | Plant response rating, Canarygrass ([6]; 31 g ai/ha, scale 0 to 100): 100 | Plant response rating, Canarygrass [6, 14]: 100 | Chickweed plant response rating ([7]; 8 g ai/ha): 0 | Plant response rating, Chickweed ([7]; 16 g ai/ha, scale 0 to 100): 0 | Plant response rating, Chickweed ([7]; 31 g ai/ha, scale 0 to 100): 0 | Plant response rating, Chickweed [7, 14]: 0 | Windgrass plant response rating ([8]; 8 g ai/ha): 85 | Windgrass plant response rating ([8]; 16 g ai/ha): 90 | Plant response rating, Windgrass ([8]; 31 g ai/ha, scale 0 to 100): 100 | Plant response rating, Windgrass [8, 14]: 100 | Barley plant response rating ([9]; 8 g ai/ha, 0-100 scale): 20 | Plant response rating, Barley ([9]; 16 g ai/ha): 40 | Plant response rating, Barley ([9]; 31 g ai/ha): 95 | Plant response rating, Barley ([9]; 62 g ai/ha): 95

COc1nn(C)c(=O)c(-n2nc(-c3ccc(Br)cc3)cc2C)c1O [Compound 82]
Plant response rating, Barnyardgrass [1, 15]: 100 | Plant response rating, Barnyardgrass [1, 16]: 100 | Plant response rating, Barnyardgrass [1, 17]: 50 | Plant response rating, Barnyardgrass [1, 18]: 100 | Plant response rating, Corn [2, 15]: 80 | Plant response rating, Corn [2, 16]: 100 | Plant response rating, Corn [2, 17]: 40 | Plant response rating, Corn [2, 18]: 50 | Plant response rating, Foxtail, Giant [3, 15]: 100 | Plant response rating, Foxtail, Giant [3, 16]: 100 | Plant response rating, Foxtail, Giant [3, 17]: 90 | Plant response rating, Foxtail, Giant [3, 18]: 100 | Plant response rating, Crabgrass, Large [4, 15]: 100 | Plant response rating, Crabgrass, Large [4, 16]: 100 | Plant response rating, Crabgrass, Large [4, 17]: 50 | Plant response rating, Crabgrass, Large [4, 18]: 100 | Plant response rating, Wheat [5, 15]: 90 | Plant response rating, Wheat [5, 16]: 100 | Plant response rating, Wheat [5, 17]: 50 | Plant response rating, Wheat [5, 18]: 90 | Canarygrass plant response rating ([6]; 8 g ai/ha): 80 | Canarygrass plant response rating ([6]; 16 g ai/ha): 95 | Plant response rating, Canarygrass ([6]; 31 g ai/ha, scale 0 to 100): 100 | Plant response rating, Canarygrass [6, 14]: 100 | Chickweed plant response rating ([7]; 8 g ai/ha): 0 | Chickweed plant response rating ([7]; 16 g ai/ha): 0 | Plant response rating, Chickweed ([7]; 31 g ai/ha, scale 0 to 100): 0 | Plant response rating, Chickweed [7, 14]: 90 | Windgrass plant response rating ([8]; 8 g ai/ha): 70 | Windgrass plant response rating ([8]; 16 g ai/ha): 100 | Plant response rating, Windgrass ([8]; 31 g ai/ha, scale 0 to 100): 100 | Plant response rating, Windgrass [8, 14]: 100 | Barley plant response rating ([9]; 8 g ai/ha, 0-100 scale): 90 | Barley plant response rating ([9]; 16 g ai/ha, 0-100 scale (0 no effect, 100 complete control)): 98 | Plant response rating, Barley ([9]; 31 g ai/ha): 100 | Plant response rating, Barley ([9]; 62 g ai/ha): 100
